Assay results taken from patent publication US8609860B2, “Acid-labile trigger units” (KTB Tumorforschungsgesellschaft mbH, priority 2009, dated 2013).

What was measured:
[1] = buffer
Experimental: (§1) Half-lives of imine hydrolysis are determined by measuring the decrease of the concentration of the imine and/or the increase of the concentration of the hydrolysis products e.g. by fluorescence methods, HPLC, infrared spectroscopy and/or NMR spectroscopy.
(§2) For example, in the case of compounds comprising above groups Ar and the fluorescent dye AMC (cf. FIG. 3), half-lives of imine hydrolysis are determined by measuring the increase in fluorescence that corresponds to the release of AMC from the model compounds.
(§3) • 200 μL solution per well; • Wavelength: λex=390 nm, λem=460 nm; • Temperature: 37° C.

[2] = Determination of half-lives for the imine hydrolysis in model compounds (AMC release, fluorescence)
Experimental: as §1, §2, §3

t1/2 pH 5.0 (half-life of imine hydrolysis) ([1]; pH 5) [min] | t1/2 pH 7.4 (half-life of imine hydrolysis) ([1]; pH 7.4) [h] | half-life ([2]; acetate buffer, pH 5) [h] | half-life ([2]; phosphate buffer, pH 7.4) [h] | Molecule
173 | 365 | – | – | 4-(Perfluorobenzylideneamino)benzyl 4-methylcoumarin-7-ylcarbamate [Compound 6]
– | – | 0.567 | 8 | Cc1cc(=O)oc2cc(NC(=O)OCc3ccc(N=Cc4ccccc4)cc3)ccc12 [Compound 4, 4-(Benzylideneamino)benzyl 4-methylcoumarin-7-ylcarbamate]
– | – | 0.567 | 89 | Cc1cc(=O)oc2cc(NC(=O)OCc3ccc(N=Cc4c(F)c(F)cc(F)c4F)cc3)ccc12 [Compound 5, 4-(2,3,5,6-Tetrafluorobenzylideneamino)benzyl 4-methylcoumarin-7-ylcarbamate]
